Assay results from the supplement of paper PMC11208160.

Test: recombinant UMI read abundance after kanamycin selection (control-corrected) (log10(CPM+1)); higher = more efficient recombination; extreme values may be limits of the assay; sequences stand for … in AGTGCAGAGAAAATCGGCCAGTTTTCTCTGCCTGCAGTCCGCATGCCGTGGGACCCCTTGGGTTCTAACCTGTTGCCTAGATTTATGCAGCGGACTGCCTTTCTCCCAAAGTGATAAACCGG…AGGTTGGTTTCACT; site = the 11-nt donor
Summary of the method: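 Counts of recombinant UMIs were reported as log10(CPM+1). Before that, they were converted to CPM, averaged over replicates and scaled using control-derived factors. They came from PCR across the donor–target junction after Escherichia coli carrying the pair library and target plasmid was plated on IPTG (0.07 mM) plus kanamycin, or unselected, in two replicates each.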
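Also: IS621 bridge recombinase in Escherichia coli cells against a fixed T5 target plasmid.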

In order of falling “recombinant UMI read abundance (log10)” value:
1. ATACTATCATGGACCGGTTTTCCCGGTAATCCGTATTTGAC (site ATACTATCTGT)  3.39
2. ATCGAGTCATGGACCGGTTTTCCCGGTAATCCGTATTTGTA (site ATCGAGTCTTA)  3.05
3. ATATGAACATGGACCGGTTTTCCCGGTAATCCGTATTTGAC (site ATATGAACTGT)  2.9
4. ATGAAGACATGGACCGGTTTTCCCGGTAATCCGTATTTGCT (site ATGAAGACTAG)  2.82
5. ATCTATACATGGACCGGTTTTCCCGGTAATCCGTATTTGTC (site ATCTATACTGA)  2.8
6. ATCACCTCATGGACCGGTTTTCCCGGTAATCCGTATTTGCT (site ATCACCTCTAG)  2.75
7. ATCTGATCATGGACCGGTTTTCCCGGTAATCCGTATTTGCT (site ATCTGATCTAG)  2.71
8. ATAGGTGCATGGACCGGTTTTCCCGGTAATCCGTATTTGTC (site ATAGGTGCTGA)  2.7
9. ATACCCACATGGACCGGTTTTCCCGGTAATCCGTATTTGAC (site ATACCCACTGT)  2.65
10. ATATATACATGGACCGGTTTTCCCGGTAATCCGTATTTGAC (site ATATATACTGT)  2.65
11. ATGAATTCATGGACCGGTTTTCCCGGTAATCCGTATTTGGT (site ATGAATTCTAC)  2.57
12. ATCGATTCATGGACCGGTTTTCCCGGTAATCCGTATTTGAG (site ATCGATTCTCT)  2.41
13. ATGAATACATGGACCGGTTTTCCCGGTAATCCGTATTTGCA (site ATGAATACTTG)  2.21
14. ATCTAAGCATGGACCGGTTTTCCCGGTAATCCGTATTTGAG (site ATCTAAGCTCT)  2.16
15. ATCGAAGCATGGACCGGTTTTCCCGGTAATCCGTATTTGAG (site ATCAAAGCTCT)  2.12
16. ATCTATACATGGACCGGTTTTCCCGGTAATCCGTATTTGCC (site ATCTATACTGG)  2.12
17. ATATTTGCATGGACCGGTTTTCCCGGTAATCCGTATTTGAC (site ATATTTGCTGT)  2.1
18. ATCGAAGCATGGACCGGTTTTCCCGGTAATCCGTATTTGAG (site ATCGAAGCTCT)  2.1
19. ATGATAACATGGACCGGTTTTCCCGGTAATCCGTATTTGCA (site ATGATAACTTG)  2.08
20. ATAATGCCATGGACCGGTTTTCCCGGTAATCCGTATTTGAC (site ATAATGCCTGT)  2.03
21. ATCTAAGCATGGACCGGTTTTCCCGGTAATCCGTATTTGAG (site ATCCAAGCTCT)  1.93
22. ATCCCTACATGGACCGGTTTTCCCGGTAATCCGTATTTGCA (site ATCCCTACTTG)  1.81
23. ATGAATACATGGACCGGTTTTCCCGGTAATCCGTATTTGGC (site ATGAATACTGC)  1.69
24. ATCGACTCATGGACCGGTTTTCCCGGTAATCCGTATTTGAG (site ATCGACTCTCT)  1.67
25. ATATATACATGGACCGGTTTTCCCGGTAATCCGTATTTGAC (site ATGTATACTGT)  1.62
26. ATATCAACATGGACCGGTTTTCCCGGTAATCCGTATTTGTA (site ATATCAACTTA)  1.61
27. ATCCAAACATGGACCGGTTTTCCCGGTAATCCGTATTTGAG (site ATCCAAACTCT)  1.6
28. ATACGCACATGGACCGGTTTTCCCGGTAATCCGTATTTGAA (site ATACGCACTTT)  1.55
29. ATAGGGCCATGGACCGGTTTTCCCGGTAATCCGTATTTGAC (site ATAAGGCCTGT)  1.44
30. ATACGCACATGGACCGGTTTTCCCGGTAATCCGTATTTGTT (site ATACGCACTAA)  1.29
31. ATCCTGGCATGGACCGGTTTTCCCGGTAATCCGTATTTGAA (site ATCCTGGCTTT)  1.24
32. ATCTATACATGGACCGGTTTTCCCGGTAATCCGTATTTGCC (site ATCTATACTGA)  1.23
33. ATGAACTCATGGACCGGTTTTCCCGGTAATCCGTATTTGGG (site ATGAACTCTCC)  1.08
34. ATCGGGACATGGACCGGTTTTCCCGGTAATCCGTATTTGTG (site ATCGGGACTCA)  0.972
35. ATAGGTCCATGGACCGGTTTTCCCGGTAATCCGTATTTGTT (site ATAGGTCCTAA)  0.95
36. ATCTAAGCATGGACCGGTTTTCCCGGTAATCCGTATTTGAG (site ATCAAAGCTCT)  0.792
37. ATATATACATGGACCGGTTTTCCCGGTAATCCGTATTTGAC (site ATCTATACTGT)  0.727
38. ATCGAAGCATGGACCGGTTTTCCCGGTAATCCGTATTTGAG (site ATCTAAGCTCT)  0.58
39. ATCTATACATGGACCGGTTTTCCCGGTAATCCGTATTTGCC (site ATCTATACTGT)  0.46
40. ATCCAAACATGGACCGGTTTTCCCGGTAATCCGTATTTGAG (site ATCCAAGCTCT)  0.432
41. ATCCTGACATGGACCGGTTTTCCCGGTAATCCGTATTTGAA (site ATCCTGACTTT)  0.419
42. ATGAGGACATGGACCGGTTTTCCCGGTAATCCGTATTTGGG (site ATGAGGACTCC)  0.399
43. ATCTAAGCATGGACCGGTTTTCCCGGTAATCCGTATTTGAG (site ATCGAAGCTCT)  0.367
44. ATCGAAGCATGGACCGGTTTTCCCGGTAATCCGTATTTGAG (site ATCCAAGCTCT)  0.355
45. ATCCAAACATGGACCGGTTTTCCCGGTAATCCGTATTTGAG (site ATCCAATCTCT)  0.352
46. ATCCAGGCATGGACCGGTTTTCCCGGTAATCCGTATTTGTG (site ATCCAGGCTCA)  0.328
47. ATCCAACCATGGACCGGTTTTCCCGGTAATCCGTATTTGAG (site ATCCAATCTCT)  0.257
48. ATATATACATGGACCGGTTTTCCCGGTAATCCGTATTTGAC (site ATTTATACTGT)  0.227
49. ATAGTTCCATGGACCGGTTTTCCCGGTAATCCGTATTTGGA (site ATAGTTCCTTC)  0.223
50. ATAGGCCCATGGACCGGTTTTCCCGGTAATCCGTATTTGAA (site ATAGGCCCTTT)  0.215
51. ATCCAACCATGGACCGGTTTTCCCGGTAATCCGTATTTGAG (site ATCCAAGCTCT)  0.133
52. ATCCCTGCATGGACCGGTTTTCCCGGTAATCCGTATTTGTG (site ATCCCTGCTCA)  0.13
53. ATCCCTTCATGGACCGGTTTTCCCGGTAATCCGTATTTGTG (site ATCCCTTCTCA)  0.0697
54. ATCCGTCCATGGACCGGTTTTCCCGGTAATCCGTATTTGAT (site ACCCGTCCTAT)  0.0678
55. ATCCGTCCATGGACCGGTTTTCCCGGTAATCCGTATTTGAT (site ATCCGTCCTAT)  0.0236
56. ATCCAACCATGGACCGGTTTTCCCGGTAATCCGTATTTGAG (site ATCCAAACTCT)  0.0118
57. ATCCAAACATGGACCGGTTTTCCCGGTAATCCGTATTTGAG (site ATCCAACCTCT)  0.01
58. ATCCGTCCATGGACCGGTTTTCCCGGTAATCCGTATTTGAT (site AACCGTCCTAT)  0.00762
59. ATCCGTCCATGGACCGGTTTTCCCGGTAATCCGTATTTGAC (site ATCCGTCCTGT)  0.00623
60. ATCCCGGCATGGACCGGTTTTCCCGGTAATCCGTATTTGGG (site ATCCCGGCTCC)  0.00576
61. ATCACAGCATGGACCGGTTTTCCCGGTAATCCGTATTTGGG (site ATCACAGCTCC)  0.00407
62. ATCCGTCCATGGACCGGTTTTCCCGGTAATCCGTATTTGAT (site AGCCGTCCTAT)  0.00385
63. ATACTATCATGGACCGGTTTTCCCGGTAATCCGTATTTGAC (site CTAGTATCTGT)  0
64. ATAGGGCCATGGACCGGTTTTCCCGGTAATCCGTATTTGAC (site ATACGGCCTGT)  0
65. ATAGGGCCATGGACCGGTTTTCCCGGTAATCCGTATTTGAC (site ATAGGGCCTGT)  0
66. ATAGGGCCATGGACCGGTTTTCCCGGTAATCCGTATTTGAC (site ATATGGCCTGT)  0
67. ATCACACCATGGACCGGTTTTCCCGGTAATCCGTATTTGTC (site ATCACACCTGA)  0
68. ATCCAACCATGGACCGGTTTTCCCGGTAATCCGTATTTGAG (site ATCCAACCTCT)  0
69. ATCTATACATGGACCGGTTTTCCCGGTAATCCGTATTTGCC (site ATCTATACTGC)  0
70. ATCTATACATGGACCGGTTTTCCCGGTAATCCGTATTTGTC (site ATCTATACTGC)  0
71. ATCTATACATGGACCGGTTTTCCCGGTAATCCGTATTTGTC (site ATCTATACTGG)  0
72. ATCTATACATGGACCGGTTTTCCCGGTAATCCGTATTTGTC (site ATCTATACTGT)  0
73. ATCTTGGCATGGACCGGTTTTCCCGGTAATCCGTATTTGCT (site ATCTTGGCTAG)  0
74. ATGAAGACATGGACCGGTTTTCCCGGTAATCCGTATTTGCT (site AGGAAGACTTG)  0
75. ATGAATACATGGACCGGTTTTCCCGGTAATCCGTATTTGCA (site AGGAAGACTTG)  0
